Laboratory results reported in PubChem BioAssay AID2060599 (Molecular Pharmacology Branch, DTP, NCI, 2025).

System: 817829-284-R-J1-PDC complex spheroids, viability
Assay: Anticancer human tumor 817829-284-R-J1-PDC patient-derived colon adenocarcinoma cell line growth inhibition [CLK]
Settings: for IC50: curve of first compound; for viability, T/C: stronger effect = lower value; active = viability on the fitted dose curve at most 10% of control; inactive = the rest
Outline: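 Patient-derived tumor cells grown as complex spheroids with HUVEC endothelial cells and mesenchymal stem cells, treated with drug combinations. Concentrations descend in half-log steps from near clinical Cmax, or from 10 microM if Cmax unknown.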

[1] = second compound 0.0316 µM, first compound 0.0316 µM
[2] = second compound 0.0316 µM, first compound 0.1 µM
[3] = second compound 0.1 µM, first compound 0.0316 µM
[4] = second compound 0.1 µM, first compound 0.1 µM
[5] = second compound 0.316 µM, first compound 0.0316 µM
[6] = second compound 0.316 µM, first compound 0.1 µM
[7] = second compound 1 µM, first compound 0.0316 µM
[8] = second compound 1 µM, first compound 0.1 µM
[9] = second compound 3.16 µM, first compound 0.0316 µM
[10] = second compound 3.16 µM, first compound 0.1 µM
[11] = second compound 10 µM, first compound 0.0316 µM
[12] = second compound 10 µM, first compound 0.1 µM
[13] = second compound 0.0316 µM, first compound 0.316 µM
[14] = second compound 0.0316 µM, first compound 1 µM
[15] = second compound 0.0316 µM, first compound 3.16 µM
[16] = second compound 0.0316 µM, first compound 10 µM
[17] = second compound 0.1 µM, first compound 0.316 µM
[18] = second compound 0.1 µM, first compound 1 µM
[19] = second compound 0.1 µM, first compound 3.16 µM
[20] = second compound 0.1 µM, first compound 10 µM
[21] = second compound 0.316 µM, first compound 0.316 µM
[22] = second compound 0.316 µM, first compound 1 µM
[23] = second compound 0.316 µM, first compound 3.16 µM
[24] = second compound 0.316 µM, first compound 10 µM
[25] = second compound 1 µM, first compound 0.316 µM
[26] = second compound 1 µM, first compound 1 µM
[27] = second compound 1 µM, first compound 3.16 µM
[28] = second compound 1 µM, first compound 10 µM
[29] = second compound 3.16 µM, first compound 0.316 µM
[30] = second compound 3.16 µM, first compound 1 µM
[31] = second compound 3.16 µM, first compound 3.16 µM
[32] = second compound 3.16 µM, first compound 10 µM
[33] = second compound 10 µM, first compound 0.316 µM
[34] = second compound 10 µM, first compound 1 µM
[35] = second compound 10 µM, first compound 3.16 µM
[36] = second compound 10 µM, first compound 10 µM
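Also: spheroids exposed to the agents for seven days before readout.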

Cn1ncnc1[C@H]1c2n[nH]c(=O)c3cc(F)cc(c23)N[C@@H]1c1ccc(F)cc1 + CN1CCN(c2cc(C(=O)Nc3cc4cc(-c5cnn(C)c5)ccc4cn3)ccn2)CC1
< 0.316 nM: IC50 (second compound 0.1 µM) | IC50 (second compound 0.316 µM) | IC50 (second compound 1 µM) | IC50 (second compound 3.16 µM) | IC50 (second compound 10 µM)
inactive: viability, T/C (second compound 0.0316 µM, first compound 0.000316 µM) 60.1% | viability, T/C (second compound 0.0316 µM, first compound 0.001 µM) 54.6% | viability, T/C (second compound 0.0316 µM, first compound 0.00316 µM) 47.3% | viability, T/C (second compound 0.0316 µM, first compound 0.01 µM) 43.5% | viability, T/C [1] 32.6% | viability, T/C [2] 24.1% | viability, T/C (second compound 0.1 µM, first compound 0.000316 µM) 13.6% | viability, T/C (second compound 0.1 µM, first compound 0.001 µM) 14% | viability, T/C (second compound 0.1 µM, first compound 0.00316 µM) 15.3% | viability, T/C (second compound 0.1 µM, first compound 0.01 µM) 14% | viability, T/C [3] 15.8% | viability, T/C [4] 14.7%
active: viability, T/C (second compound 0.316 µM, first compound 0.000316 µM) 1.91% | viability, T/C (second compound 0.316 µM, first compound 0.001 µM) 2.09% | viability, T/C (second compound 0.316 µM, first compound 0.00316 µM) 2.16% | viability, T/C (second compound 0.316 µM, first compound 0.01 µM) 1.96% | viability, T/C [5] 1.91% | viability, T/C [6] 1.89% | viability, T/C (second compound 1 µM, first compound 0.000316 µM) 0.11% | viability, T/C (second compound 1 µM, first compound 0.001 µM) 0.08% | viability, T/C (second compound 1 µM, first compound 0.00316 µM) 0.09% | viability, T/C (second compound 1 µM, first compound 0.01 µM) 0.09% | viability, T/C [7] 0.08% | viability, T/C [8] 0.09% | viability, T/C (second compound 3.16 µM, first compound 0.000316 µM) 0.1% | viability, T/C (second compound 3.16 µM, first compound 0.001 µM) 0.11% | viability, T/C (second compound 3.16 µM, first compound 0.00316 µM) 0.14% | viability, T/C (second compound 3.16 µM, first compound 0.01 µM) 0.1% | viability, T/C [9] 0.15% | viability, T/C [10] 0.11% | viability, T/C (second compound 10 µM, first compound 0.000316 µM) 0.04% | viability, T/C (second compound 10 µM, first compound 0.001 µM) 0.05% | viability, T/C (second compound 10 µM, first compound 0.00316 µM) 0.08% | viability, T/C (second compound 10 µM, first compound 0.01 µM) 0.06% | viability, T/C [11] 0.07% | viability, T/C [12] 0.09%
2.58 nM: IC50 (second compound 0.0316 µM)

Nc1ccn(C2OC(CO)C(O)C2(F)F)c(=O)n1 (stereo unspecified) + CN1CCN(c2cc(C(=O)Nc3cc4cc(-c5cnn(C)c5)ccc4cn3)ccn2)CC1
< 31.6 nM: IC50 (second compound 0.0316 µM) | IC50 (second compound 0.1 µM) | IC50 (second compound 0.316 µM) | IC50 (second compound 1 µM) | IC50 (second compound 3.16 µM) | IC50 (second compound 10 µM)
active: viability, T/C [1] 4.65% | viability, T/C [2] 4.62% | viability, T/C [13] 3.63% | viability, T/C [14] 3.9% | viability, T/C [15] 3.03% | viability, T/C [16] 1.88% | viability, T/C [3] 3.65% | viability, T/C [4] 3.83% | viability, T/C [17] 3.7% | viability, T/C [18] 3.47% | viability, T/C [19] 3.1% | viability, T/C [20] 1.72% | viability, T/C [5] 1.66% | viability, T/C [6] 1.94% | viability, T/C [21] 1.74% | viability, T/C [22] 1.53% | viability, T/C [23] 1.54% | viability, T/C [24] 0.9% | viability, T/C [7] 0.14% | viability, T/C [8] 0.08% | viability, T/C [25] 0.09% | viability, T/C [26] 0.07% | viability, T/C [27] 0.14% | viability, T/C [28] 0.07% | viability, T/C [9] 0.11% | viability, T/C [10] 0.14% | viability, T/C [29] 0.17% | viability, T/C [30] 0.09% | viability, T/C [31] 0.11% | viability, T/C [32] 0.09% | viability, T/C [11] 0.05% | viability, T/C [12] 0.09% | viability, T/C [33] 0.09% | viability, T/C [34] 0.09% | viability, T/C [35] 0.11% | viability, T/C [36] 0.11%

O=C(c1cc(Cc2n[nH]c(=O)c3ccccc23)ccc1F)N1CCN(C(=O)C2CC2)CC1 + CN1CCN(c2cc(C(=O)Nc3cc4cc(-c5cnn(C)c5)ccc4cn3)ccn2)CC1
inactive: viability, T/C [1] 49.4% | viability, T/C [2] 44.3% | viability, T/C [13] 46.2% | viability, T/C [14] 45.6% | viability, T/C [15] 36.7% | viability, T/C [16] 26.6% | viability, T/C [3] 15.5% | viability, T/C [4] 19.8% | viability, T/C [17] 18.6% | viability, T/C [18] 20.7% | viability, T/C [19] 17.8% | viability, T/C [20] 18.6%
< 31.6 nM: IC50 (second compound 0.0316 µM) | IC50 (second compound 0.1 µM) | IC50 (second compound 0.316 µM) | IC50 (second compound 1 µM) | IC50 (second compound 3.16 µM) | IC50 (second compound 10 µM)
active: viability, T/C [5] 1.83% | viability, T/C [6] 1.77% | viability, T/C [21] 2.03% | viability, T/C [22] 1.63% | viability, T/C [23] 1.4% | viability, T/C [24] 1.54% | viability, T/C [7] 0.12% | viability, T/C [8] 0.1% | viability, T/C [25] 0.12% | viability, T/C [26] 0.09% | viability, T/C [27] 0.12% | viability, T/C [28] 0.09% | viability, T/C [9] 0.2% | viability, T/C [10] 0.18% | viability, T/C [29] 0.17% | viability, T/C [30] 0.16% | viability, T/C [31] 0.23% | viability, T/C [32] 0.22% | viability, T/C [11] 0.06% | viability, T/C [12] 0.08% | viability, T/C [33] 0.15% | viability, T/C [34] 0.09% | viability, T/C [35] 0.18% | viability, T/C [36] 0.15%
